Common to all, as to details: 50 μM PC components; recombinant human UGT; mean of triplicate
For data set [1], the target named is T1, UGT2B7 (Homo sapiens, UniProt P16662).
T1 sequence (P16662 24-529): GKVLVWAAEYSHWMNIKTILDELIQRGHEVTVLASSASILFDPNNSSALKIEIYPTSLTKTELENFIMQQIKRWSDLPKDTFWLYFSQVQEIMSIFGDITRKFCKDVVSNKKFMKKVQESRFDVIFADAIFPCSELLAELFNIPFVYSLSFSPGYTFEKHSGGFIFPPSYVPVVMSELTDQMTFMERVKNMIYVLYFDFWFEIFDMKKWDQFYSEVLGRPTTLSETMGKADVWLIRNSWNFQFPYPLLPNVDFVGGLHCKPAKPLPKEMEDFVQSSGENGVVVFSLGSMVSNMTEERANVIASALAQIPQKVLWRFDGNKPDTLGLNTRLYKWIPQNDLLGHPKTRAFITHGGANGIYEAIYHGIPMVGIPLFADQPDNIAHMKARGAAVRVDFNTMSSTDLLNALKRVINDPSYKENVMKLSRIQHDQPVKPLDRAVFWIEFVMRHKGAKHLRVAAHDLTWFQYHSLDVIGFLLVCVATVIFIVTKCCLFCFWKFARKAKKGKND
Put plainly: UGT2B7 supersomes-catalyzed 4-MU glucuronidation inhibition.

Data set [2] concerns the target T2, UGT1A1 (Homo sapiens, UniProt P22309).
T2 sequence (P22309 26-533): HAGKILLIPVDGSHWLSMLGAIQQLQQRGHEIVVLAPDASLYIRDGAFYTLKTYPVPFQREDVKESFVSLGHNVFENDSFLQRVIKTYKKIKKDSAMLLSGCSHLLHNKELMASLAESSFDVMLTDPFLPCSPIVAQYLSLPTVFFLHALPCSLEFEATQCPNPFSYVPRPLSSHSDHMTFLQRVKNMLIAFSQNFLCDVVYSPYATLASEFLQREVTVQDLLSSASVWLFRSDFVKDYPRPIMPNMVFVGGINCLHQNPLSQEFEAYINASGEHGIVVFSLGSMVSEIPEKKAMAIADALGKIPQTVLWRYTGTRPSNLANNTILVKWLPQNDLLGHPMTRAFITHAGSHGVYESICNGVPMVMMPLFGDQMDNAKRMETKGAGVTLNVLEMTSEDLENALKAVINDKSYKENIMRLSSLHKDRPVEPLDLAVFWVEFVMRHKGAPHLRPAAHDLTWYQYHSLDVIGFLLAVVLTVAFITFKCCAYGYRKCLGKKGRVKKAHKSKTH
In words: UGT1A1 supersomes-catalyzed 4-MU glucuronidation inhibition.

In data set [3] the target is T3, UGT1A6 (Homo sapiens, UniProt P19224).
T3 sequence (P19224 27-532): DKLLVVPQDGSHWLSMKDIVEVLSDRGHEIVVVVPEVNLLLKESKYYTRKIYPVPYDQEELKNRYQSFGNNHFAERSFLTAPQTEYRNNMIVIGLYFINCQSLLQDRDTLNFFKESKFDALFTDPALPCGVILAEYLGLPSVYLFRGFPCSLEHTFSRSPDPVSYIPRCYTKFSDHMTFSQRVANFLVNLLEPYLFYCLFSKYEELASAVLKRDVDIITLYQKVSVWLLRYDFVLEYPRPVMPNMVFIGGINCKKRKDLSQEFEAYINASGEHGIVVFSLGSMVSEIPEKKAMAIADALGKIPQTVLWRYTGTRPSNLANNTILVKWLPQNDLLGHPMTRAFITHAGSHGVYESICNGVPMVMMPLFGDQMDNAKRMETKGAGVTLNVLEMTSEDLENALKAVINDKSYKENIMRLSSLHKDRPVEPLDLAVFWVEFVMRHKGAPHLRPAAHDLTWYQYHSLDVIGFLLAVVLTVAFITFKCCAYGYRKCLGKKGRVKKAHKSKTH

In data set [4] the target is T4, UGT1A8 (Homo sapiens, UniProt Q9HAW9).
T4 sequence (Q9HAW9 26-530): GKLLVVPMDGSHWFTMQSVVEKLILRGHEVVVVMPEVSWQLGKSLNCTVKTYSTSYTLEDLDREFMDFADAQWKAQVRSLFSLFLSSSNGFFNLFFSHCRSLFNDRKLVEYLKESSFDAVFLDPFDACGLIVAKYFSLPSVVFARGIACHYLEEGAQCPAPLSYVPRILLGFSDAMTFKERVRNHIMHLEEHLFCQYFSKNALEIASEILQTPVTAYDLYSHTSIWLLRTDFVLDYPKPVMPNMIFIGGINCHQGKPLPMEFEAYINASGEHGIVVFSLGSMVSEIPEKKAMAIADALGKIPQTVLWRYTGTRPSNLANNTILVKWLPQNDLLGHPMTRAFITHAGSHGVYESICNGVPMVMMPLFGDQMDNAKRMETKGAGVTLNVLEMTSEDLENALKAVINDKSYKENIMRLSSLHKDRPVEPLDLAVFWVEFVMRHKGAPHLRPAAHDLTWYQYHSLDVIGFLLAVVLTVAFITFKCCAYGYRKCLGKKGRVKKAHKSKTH

Data set [5] addresses T5, UGT2B4 (Homo sapiens, UniProt P06133).
T5 sequence (P06133 24-528): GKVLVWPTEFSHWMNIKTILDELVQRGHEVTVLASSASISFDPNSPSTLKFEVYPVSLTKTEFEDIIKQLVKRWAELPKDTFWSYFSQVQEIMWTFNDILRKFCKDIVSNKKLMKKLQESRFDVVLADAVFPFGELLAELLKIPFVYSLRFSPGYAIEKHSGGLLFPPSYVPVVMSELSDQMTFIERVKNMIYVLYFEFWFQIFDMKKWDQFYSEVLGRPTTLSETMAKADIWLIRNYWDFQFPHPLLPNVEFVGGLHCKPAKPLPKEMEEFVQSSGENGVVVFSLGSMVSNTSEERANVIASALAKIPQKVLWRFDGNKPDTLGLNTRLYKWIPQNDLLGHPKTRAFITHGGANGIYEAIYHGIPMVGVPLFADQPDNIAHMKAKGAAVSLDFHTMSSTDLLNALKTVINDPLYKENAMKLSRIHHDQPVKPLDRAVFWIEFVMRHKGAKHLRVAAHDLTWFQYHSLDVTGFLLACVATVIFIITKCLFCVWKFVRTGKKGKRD
In words: UGT2B4 supersomes-catalyzed 4-MU glucuronidation inhibition.

For `CCCCCCCCCCCCCCCCCCCCCC(=O)OC[C@H](COP(=O)([O-])OCC[N+](C)(C)C)OC(=O)CCCCCCCCCCCCCCCCCCCCC` [PC 22:0, 22:0], the “residual activity 2B7” value in data set [1] amounted to 33.0%. Besides, the “residual activity 1A1” value in data set [2] is recorded as 170.3%. Further, the “residual activity 1A6” value in data set [3] was determined as 60.2%. Further, in data set [4], the “residual activity 1A8” value is 38.0%. Also, the “residual activity 2B4” value in data set [5] turned out to be 60.0%.

Turning to `CCCCCCCCCCCCCCCCCCCCCCC(=O)OC[C@H](COP(=O)([O-])OCC[N+](C)(C)C)OC(=O)CCCCCCCCCCCCCCCCCCCCCC` [PC 23:0, 23:0], the “residual activity 2B7” value in data set [1] stood at 69.5%. Further, the “residual activity 1A1” value in data set [2] stood at 133.7%. Besides, the “residual activity 1A6” value in data set [3] is 98.9%. The “residual activity 1A8” value in data set [4] came out at 93.5%. In data set [5], the “residual activity 2B4” value was 168.3%.
